Test results published in ChEMBL document CHEMBL1275255, “Role of Fks1p and matrix glucan in Candida albicans biofilm resistance to an echinocandin, pyrimidine, and polyene” (2010).
In brackets after ≈: the same amount, converted by molar mass. Starred links: 1 amine or outer side, 2 acyl side, 3 side chain; linkers in the order of their positions; H or OH if unused. Positions of bridges follow the written chain, without caps; N, C: chain ends. Non-standard residues stand in square brackets, D forms with d. Residues, ends and D or L forms follow the SMILES beside them. *: point of attachment. pTerphenylCO(4''-OnC5H11) = CCCCCOc1ccc(-c2ccc(-c3ccc(C(=O)*)cc3)cc2)cc1; Orn(4R-OH,5R-OH) = O=C([C@H](C[C@@H](O)[C@@H](O)N[*:3])N[*:1])[*:2]; hTyr(3S-OH,4S-OH) = N[C@H](C(=O)O)[C@H](O)[C@@H](O)c1ccc(O)cc1; Pro(3S-OH,4S-Me) = C[C@H]1CN[C@H](C(=O)O)[C@H]1O; Hyp = O=C(O)[C@@H]1C[C@@H](O)CN1

What was measured:
Assay type in all cases: functional
Candida albicans [1] = test: Antifungal activity against […] gene deficient Candida albicans assessed as decrease in biofilm formation at 0.25 ug/ml; parameters: scale not given: the % may be the effect or the level left
Candida albicans [2] = test: Antifungal activity against Candida albicans assessed as decrease in biofilm formation at 0.25 ug/ml; parameters: scale not given: the % may be the effect or the level left
Candida albicans [3] = test: Antifungal activity against Candida albicans grown as planktonic cell after 24 hrs by XTT reduction assay
Candida albicans [4] = test: Antifungal activity against […] gene deficient Candida albicans
Candida albicans [5] = test: Antifungal activity against Candida albicans TDH3 overexpressing FKS1 gene

SMILES	Activity (Candida albicans [1]) [%]	Activity (Candida albicans [2]) [%]	MIC (Candida albicans [3]) [µg/mL]	MIC (Candida albicans [4]) [µg/mL]	MIC (Candida albicans [5]) [µg/mL]
C[C@@H]1[C@H](O)[C@@H](C)/C=C/C=C/C=C/C=C/C=C/C=C/C=C/[C@H](O[C@@H]2O[C@H](C)[C@@H](O)[C@H](N)[C@@H]2O)C[C@@H]2O[C@](O)(C[C@@H](O)C[C@@H](O)[C@H](O)CC[C@@H](O)C[C@@H](O)CC(=O)O[C@H]1C)C[C@H](O)[C@H]2C(=O)O [AMPHOTERICIN B]	80	60	–	–	–
CCCCCOc1ccc(-c2ccc(-c3ccc(C(=O)N[C@H]4C[C@@H](O)[C@@H](O)NC(=O)[C@@H]5[C@@H](O)[C@@H](C)CN5C(=O)[C@H]([C@@H](C)O)NC(=O)[C@H]([C@H](O)[C@@H](O)c5ccc(O)cc5)NC(=O)[C@@H]5C[C@@H](O)CN5C(=O)[C@H]([C@@H](C)O)NC4=O)cc3)cc2)cc1 [ANIDULAFUNGIN] ({pTerphenylCO(4''-OnC5H11)}-[Orn(4R-OH,5R-OH)]T[Hyp][hTyr(3S-OH,4S-OH)]T[Pro(3S-OH,4S-Me)]; lactam 1-C)	–	–	0.01 (≈ 0.00877 µM)	0.01 (≈ 0.00877 µM)	0.01 (≈ 0.00877 µM)
Nc1nc(=O)[nH]cc1F [FLUCYTOSINE]	–	–	0.03 (≈ 0.232 µM)	0.03 (≈ 0.232 µM)	0.03 (≈ 0.232 µM)
